How the values were obtained:
Type in all cases: cell-based
[1] = system: Trypanosoma brucei Lister 427 VSG221 with APOL1 G0 recombinant protein; test: APOL1 G0 trypanosome cell rescue assay (Example B5); settings: Trypanosoma brucei, 20 h, read-out: APOL1 G0 Trypanosome Rescue EC50, Trypanosoma brucei Lister 427 VSG221 with APOL1 G0 recombinant protein, 20 hours, CellTiter-Glo; geometric mean of at least 2 assay runs; † = single assay run
Method in brief: (§1)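 Recombinant mature APOL1 (residues 28-398, His-tag removed, E. coli-expressed, refolded from inclusion bodies, DDM buffer) at […] added with 250 trypanosomes/well in modified HMI-9 media. Duplicate 11-point 2-fold compound series, 0.4% DMSO; 20 h at 37° C, 5% CO2, then CellTiter-Glo luminescence for viability.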

[2] = system: Trypanosoma brucei Lister 427 VSG221 with APOL1 G2 recombinant protein; test: APOL1 G2 trypanosome cell rescue assay (Example B5); settings: Trypanosoma brucei, 20 h, read-out: APOL1 G2 Trypanosome Rescue EC50, Trypanosoma brucei Lister 427 VSG221 with APOL1 G2 recombinant protein, 20 hours, CellTiter-Glo; geometric mean of at least 2 assay runs; † = single assay run
Method in brief: as §1

[3] = system: Trypanosoma brucei Lister 427 VSG221 with APOL1 G1 recombinant protein; test: APOL1 G1 trypanosome cell rescue assay (Example B5); settings: Trypanosoma brucei, 20 h, read-out: APOL1 G1 Trypanosome Rescue EC50, Trypanosoma brucei Lister 427 VSG221 with APOL1 G1 recombinant protein, 20 hours, CellTiter-Glo; geometric mean of at least 2 assay runs; † = single assay run
Method in brief: as §1

| Compound | EC50 [1] [µM] | EC50 [2] [µM] | EC50 [3] [µM] |
| --- | --- | --- | --- |
| O=C1Nc2ccc(Cl)cc2C12CCN(CCOc1ccc3nccnc3c1)CC2 [Compound 62, 5-chloro-1′-[2-(quinoxalin-6-yloxy)ethyl]-1,2-dihydrospiro[indole-3,4′-piperidin]-2-one] | 0.407 | 0.12 | 0.39 |
| CS(=O)(=O)c1ccc(OCCN2CCC3(CC2)C(=O)Nc2ccc(Cl)cc23)cc1F [Compound 63, 5-chloro-1′-[2-(3-fluoro-4-methanesulfonylphenoxy)ethyl]-1,2-dihydrospiro[indole-3,4′-piperidin]-2-one] | 0.118 | 0.0409 | 0.164 |
| CS(=O)(=O)c1ccc(OCCN2CCC3(CC2)C(=O)Nc2ccc(Cl)cc23)cn1 [Compound 64, 5-chloro-1′-{2-[(6-methanesulfonylpyridin-3-yl)oxy]ethyl}-1,2-dihydrospiro[indole-3,4′-piperidin]-2-one] | 0.503 | 0.167 | 0.712 |
| CN1C(=O)Cc2cc(OCCN3CCC4(CC3)C(=O)Nc3ccc(Cl)cc34)ccc21 [Compound 65, 5-chloro-1′-{2-[(1-methyl-2-oxo-2,3-dihydro-1H-indol-5-yl)oxy]ethyl}-1,2-dihydrospiro[indole-3,4′-piperidin]-2-one] | 0.318 | 0.0968 | 0.294 |
| Cc1ccc2c(c1)C1(CCN(CCOc3ccc(S(C)(=O)=O)cc3)CC1)C(=O)N2 [Compound 66, 1′-[2-(4-methanesulfonylphenoxy)ethyl]-5-methyl-1,2-dihydrospiro[indole-3,4′-piperidin]-2-one] | 0.246 | 0.0976 | 0.322 |
| Cn1ncc2cc(OCCN3CCC4(CC3)C(=O)Nc3ccc(Cl)cc34)ccc21 [Compound 68, 5-chloro-1′-{2-[(1-methyl-1H-indazol-5-yl)oxy]ethyl}-1,2-dihydrospiro[indole-3,4′-piperidin]-2-one] | 0.358 | 0.115 | 0.441 |
| CS(=O)(=O)c1ccc(OCCN2CCC3(CC2)C(=O)Nc2ccc(Cl)cc23)cc1 [Compound 69, 5-chloro-1′-[2-(4-methanesulfonylphenoxy)ethyl]-1,2-dihydrospiro[indole-3,4′-piperidin]-2-one] | 0.153 | 0.0465 | 0.184 |
| Cn1ncc2cc(OCCN3CCC4(CC3)C(=O)Nc3ccccc34)ccc21 [Compound 70, 1′-{2-[(1-methyl-1H-indazol-5-yl)oxy]ethyl}-1,2-dihydrospiro[indole-3,4′-piperidin]-2-one] | > 4 | 0.918 | > 4 |
| CS(=O)(=O)c1ccc(OCCN2CCC3(CC2)C(=O)Nc2ccc(C#N)cc23)cc1 [Compound 71, 1′-[2-(4-methanesulfonylphenoxy)ethyl]-2-oxo-1,2-dihydrospiro[indole-3,4′-piperidine]-5-carbonitrile] | 0.814 | 0.205 | 1.36 |
| CS(=O)(=O)c1ccc(OCCN2CCC3(CC2)C(=O)Nc2ccc(Br)cc23)cc1 [Compound 72, 5-bromo-1′-[2-(4-methanesulfonylphenoxy)ethyl]-1,2-dihydrospiro[indole-3,4′-piperidin]-2-one] | 0.128 | 0.0457 | 0.177 |
| CN(c1ccc(OCCN2CCC3(CC2)C(=O)Nc2ccc(C#N)cc23)cc1)S(C)(=O)=O [Compound 75, N-[4-(2-{5-cyano-2-oxo-1,2-dihydrospiro[indole-3,4′-piperidin]-1′-yl}ethoxy)phenyl]-N-methylmethanesulfonamide] | 0.383 | 0.146 | 0.578 |
| CN(c1ccc(OCCN2CCC3(CC2)C(=O)Nc2ccc(Cl)cc23)cc1)S(C)(=O)=O [Compound 76, N-[4-(2-{5-chloro-2-oxo-1,2-dihydrospiro[indole-3,4′-piperidin]-1′-yl}ethoxy)phenyl]-N-methylmethanesulfonamide] | 0.106 | 0.0355 | 0.126 |
| CS(C)(=O)=Nc1ccc(OCCN2CCC3(CC2)C(=O)Nc2ccc(C#N)cc23)cc1 [Compound 77, 1′-[2-(4-{[dimethyl(oxo)-λ^6-sulfanylidene]amino}phenoxy)ethyl]-2-oxo-1,2-dihydrospiro[indole-3,4′-piperidine]-5-carbonitrile] | > 4 | 1.45 | > 4 |
| CN1C(=O)CCc2cc(OCCN3CCC4(CC3)C(=O)Nc3ccc(Cl)cc34)cnc21 [Compound 78, 5-chloro-1′-{2-[(8-methyl-7-oxo-5,6,7,8-tetrahydro-1,8-naphthyridin-3-yl)oxy]ethyl}-1,2-dihydrospiro[indole-3,4′-piperidin]-2-one] | 0.0952 | 0.0326 | 0.0976 |
| CN1C(=O)CCc2cc(OCCN3CCC4(CC3)C(=O)Nc3ccc(C#N)cc34)cnc21 [Compound 79, 1′-{2-[(8-methyl-7-oxo-5,6,7,8-tetrahydro-1,8-naphthyridin-3-yl)oxy]ethyl}-2-oxo-1,2-dihydrospiro[indole-3,4′-piperidine]-5-carbonitrile] | 0.846 | 0.293 | 0.952 |
| CC(C)[C@]1(O)C[C@@H](N2C(=O)CCc3cc(OCCN4CCC5(CC4)C(=O)Nc4ccc(Cl)cc45)cnc32)C1 [Compound 317, 5-chloro-1′-[2-({7-oxo-8-[(cis)-3-hydroxy-3-(propan-2-yl)cyclobutyl]-5,6,7,8-tetrahydro-1,8-naphthyridin-3-yl}oxy)ethyl]-1,2-dihydrospiro[indole-3,4′-piperidin]-2-one] | 0.033 | 0.0115 | 0.0335 |
| C[C@]1(O)C[C@@H](n2c(=O)ccc3cc(OCCN4CCC5(CC4)C(=O)Nc4ccc(Cl)cc45)cnc32)C1 [Compound 323, 5-chloro-1′-[2-({7-oxo-8-[(cis)-3-hydroxy-3-methylcyclobutyl]-7,8-dihydro-1,8-naphthyridin-3-yl}oxy)ethyl]-1,2-dihydrospiro[indole-3,4′-piperidin]-2-one] | 0.032 | 0.0118 | 0.0359 |
| C[C@]1(O)C[C@@H](n2c(=O)ccc3cc(OCCN4CCC5(CC4)C(=O)Nc4ccc(C(F)F)cc45)cnc32)C1 [Compound 324, 5-(difluoromethyl)-1′-[2-({7-oxo-8-[(cis)-3-hydroxy-3-methylcyclobutyl]-7,8-dihydro-1,8-naphthyridin-3-yl}oxy)ethyl]-1,2-dihydrospiro[indole-3,4′-piperidin]-2-one] | 0.0289 | 0.00831 | 0.035 |
| O=C1CCc2cc(OCCN3CCC4(CC3)C(=O)Nc3ccc(Cl)cc34)cnc2N1C1CC(CO)C1 (stereo not drawn) [Compound 326, 5-chloro-1′-[2-({8-[3-(hydroxymethyl)cyclobutyl]-7-oxo-5,6,7,8-tetrahydro-1,8-naphthyridin-3-yl}oxy)ethyl]-1,2-dihydrospiro[indole-3,4′-piperidin]-2-one] | 0.0886 | 0.0327 | 0.0944 |
| CC1(O)CC(CN2C(=O)CCc3cc(OCCN4CCC5(CC4)C(=O)Nc4ccc(Cl)cc45)cnc32)C1 (stereo not drawn) [Compound 327, 5-chloro-1′-[2-({8-[(3-hydroxy-3-methylcyclobutyl)methyl]-7-oxo-5,6,7,8-tetrahydro-1,8-naphthyridin-3-yl}oxy)ethyl]-1,2-dihydrospiro[indole-3,4′-piperidin]-2-one] | 0.0399 | 0.0134 | 0.0466 |
| C[C@]1(O)C[C@@H](n2c(=O)ccc3cc(OCCN4CCC5(CC4)C(=O)Nc4ccc(OC(F)F)cc45)cnc32)C1 [Compound 328, 5-(difluoromethoxy)-1′-[2-({7-oxo-8-[(cis)-3-hydroxy-3-methylcyclobutyl]-7,8-dihydro-1,8-naphthyridin-3-yl}oxy)ethyl]-1,2-dihydrospiro[indole-3,4′-piperidin]-2-one] | 0.0799 | 0.0239 | 0.0921 |
| O=C1Nc2ccc(Cl)cc2C12CCN(CCOc1cnc(C3(CO)CC3)nc1)CC2 [Compound 333, 5-chloro-1′-[2-({2-[1-(hydroxymethyl)cyclopropyl]pyrimidin-5-yl}oxy)ethyl]-1,2-dihydrospiro[indole-3,4′-piperidin]-2-one] | 0.152 | 0.074 | 0.205 |
| CP(C)(=O)C1(c2ccc(OCCN3CCC4(CC3)C(=O)Nc3ccc(Cl)cc34)cc2)CC1 [Compound 343, 5-chloro-1′-(2-{4-[1-(dimethylphosphoryl)cyclopropyl]phenoxy}ethyl)-1,2-dihydrospiro[indole-3,4′-piperidin]-2-one] | 0.174 | 0.0642 | 0.203 |
| C[C@]1(O)C[C@@H](N2C(=O)Cc3cc(OCCN4CCC5(CC4)C(=O)Nc4ccc(Cl)cc45)cnc32)C1 [Compound 345, 5-chloro-1′-[2-({2-oxo-1-[(cis)-3-hydroxy-3-methylcyclobutyl]-1H,2H,3H-pyrrolo[2,3-b]pyridin-5-yl}oxy)ethyl]-1,2-dihydrospiro[indole-3,4′-piperidin]-2-one] | 0.161 | 0.0802 | 0.242 |

Source: US12344610B2, “APOL1 inhibitors and methods of use” (Maze Therapeutics, Inc., priority 2022, dated 2025)
